Laboratory results taken from publication PMC6219988 (Biochemistry, 2018).

System: PTP1B
Assay: PTP1B-catalyzed hydrolysis of pNPP in the presence of inhibitors
Type: biochemical
Conditions: IC50 at 20 mM pNPP

potency (IC50) relative to AA (ratio vs AA): 3 fold | potency (IC50) relative to DeAA (ratio vs DeAA): 7 fold
Compound: CC(C)C1C=C2CCC3C(C)(C(=O)O)CCCC3(C)C2CC1 (single isomer, unassigned; diaa) [DiAA, dihydroabietic acid]
